# Assay results published in patent US7052850B2, “Isolated human EDG-4 receptor” (priority 1997, dated 2006).
# Entries after “also recorded” stand apart in the source; their conditions may differ.
# System: pcDNA3-transfected 293-EBNA cells
# Experiment: NF-κB luciferase reporter in 293-EBNA cells, empty vector pcDNA3
# Format: cell-based
# Conditions: empty vector control; S1P, SPC 1-10 μM, LPA 10 μM, 20% FBS
# Experimental: • 1) 150 mm plates of 293-EBNA obtained from Invitrogen (Cat. R620-07) with a confluency of 18 80% were used for transfection. • 2) 6.6 μg NF-κB-tk-p4Luc reporter DNA and 6.6 μg of pC3-redg4 (expressing rat EDG-4), or pcDNA3 DNA was diluted in 500 μl OPTI-MEM (Gibco; Cat. 31985-062) • 3) 96.8 μl Lipofectamine (Gibco; Cat. 18324-020) was diluted in 500 μl of OPTI-MEM. • 4) The 2 solutions were mixed gently and the tube was incubated for 30 min at room temperature. • 5) The 293-EBNA plates were washed once with PBS and 13 ml OPTI-MEM was added to each plate, • 6) 6 ml OPTI-UMM was added to each transfection tube and this was added to a plate of 293EBNA cells. The plates were left for 4 hrs at 37° C. in a 5% CO2 incubator. • 7) After 4 his, the media was removed and replaced with frest 10% FBS media. Day 2: • 1) Transfected cells were washed, typsinized with 1× tryspin, resuspended in 10 ml media and counted. • 2) 0.02×10 ^6 cells were plated per well of a 96-well Blackview plate coated with polyD-lysine. No cells were plated in the outside wells of the 96-well plate. Two 96-well plates were seeded for each transfection. Day 3: • 1) Cells were washed with PBS and 140 μl serum-free media (SFM) added to each well. Plates were incubated in 37° C. incubator for 6 hrs. • 2) After 6 hrs, media was removed and cells treated with compounds diluted in 0.5% FBS media (140 μl added to each well). The Following Treatments Were Used: pcDNA3:
# Day 4 Luciferase Assay • 1) Luclite kit (Packard; Cat. 6016911) was used for luciferase assay. All reagents were brought to room temperature before use. • 2) Supernatant was transferred to a new 96-well plate and stored at −20 C. for […] IL-8 measurement. • 3) 50 μl 0.5 M HEPES pH 7.8 buffer (1 mM MgCl21 mM CaCl2) was addeded to all wells of 96-well plate. […] A stop plate was placed on top of the blackview plate to keep it in the dark. • 6) Plates were incubated at room temperature for 30 min. • 7) After incubation, plates were counted in a 12 detector Packard Top Count on a program without dark delay. […]
row,Compound,NF-κB reporter response in pcDNA3-transfected cells
1,"CCCCCCCCCCCCC/C=C/[C@@H](O)[C@@H](N)COP(=O)(O)O [S1P, sphingosine 1-phosphate]",No increase in luciferase activity; also recorded: No response; also recorded: No such induction
2,"CCCCCCCCCCCCC/C=C/[C@@H](O)[C@@H](N)COP(=O)([O-])OCC[N+](C)(C)C [SPC, sphingosylphosphorylcholine]",No response; also recorded: No such induction
3,lysophosphatidic acid [LPA],no response
